How the values were obtained:
[1] = tested on: methicillin-resistant Staphylococcus aureus (MRSA) strains; conditions: Appendino et al., 2008; cited from earlier work
[2] = tested on: Pseudomonas aeruginosa ATCC 27853; assay: Biofilm formation, crystal violet staining; type: cell-based
Protocol: Overnight pre-cultures of Pseudomonas aeruginosa ATCC 27853 strain were diluted to an OD600 (optical density measured at a wavelength of 600 nm) of 0.1 in 2 ml of LB (lysogeny broth) medium into polypropylene tubes. […] Planktonic cells were removed by washing once with distilled water and biofilms were stained with crystal violet (CV, 1% in water) for 30 minutes. CV was discarded and tubes were rinsed twice with water to remove excess of dye. The stained biofilms were re-suspended in 33% acetic acid and their density was evaluated by measuring the OD600 of the suspensions normalized for bacterial density.

[3] = tested on: elastase produced by P. aeruginosa PAOW1(PT5); assay: Elastase production measured by Elastin Congo Red enzymatic activity; type: cell-based, Pseudomonas aeruginosa; conditions: CBD 500 μg/ml, overnight culture of wt strain, absorption at 495 nm normalized to cell density
Protocol: Elastase production was measured in two bacterial strains: Pseudomonas aeruginosa PAOW1(PT5) that is a wild type (wt) and Pseudomonas aeruginosa ΔlasIΔrhlI that is a mutant for quorum sensing signaling that has reduced production/expression of elastase due to the inhibition of the quorum sensing system. […] Insoluble ECR was removed by centrifugation and the absorption of the supernatant was measured at 495 nm and normalized according to cell density.

CB2 receptors = CB2 receptors (Homo sapiens, UniProt P34972); conditions: compared with THC; cited from earlier work
CB2 receptors, sequence (P34972 whole entry): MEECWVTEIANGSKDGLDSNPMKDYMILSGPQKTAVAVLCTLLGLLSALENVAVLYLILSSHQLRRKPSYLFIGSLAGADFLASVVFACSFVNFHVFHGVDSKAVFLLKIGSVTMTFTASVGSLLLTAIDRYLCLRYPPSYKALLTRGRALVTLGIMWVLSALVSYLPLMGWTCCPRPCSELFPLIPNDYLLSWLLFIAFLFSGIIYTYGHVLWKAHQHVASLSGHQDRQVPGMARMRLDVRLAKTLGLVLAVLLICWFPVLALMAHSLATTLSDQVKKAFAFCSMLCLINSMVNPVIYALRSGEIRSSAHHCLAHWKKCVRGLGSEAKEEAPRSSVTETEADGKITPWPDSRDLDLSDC

Compound	activity against a variety of MRSA strains [1]	reduction of biofilm formation by a factor, as compared to control without CBD ([2]; CBD 1.9 μg/ml to 31.25 μg/ml, 12 h at 37° C., LB medium, OD600 normalized for bacterial density)	inhibitory effect on biofilm formation at higher concentration ([2]; higher concentration of CBD (62.5 and 125 μg/ml tested), probably due to reduced solubility in culture medium)	reduction of the production of elastase as compared to control [3]	affinity for CB2 receptors (CB2 receptors)
C=C(C)[C@@H]1CCC(C)=C[C@H]1c1c(O)cc(O)cc1CCCCC [abn-CBD, reference compound]	having activity	–	–	–	–
C=C(C)[C@@H]1CCC(C)=C[C@H]1c1c(O)cc(CCCCC)cc1O [CBD, 2-[(1R,6R)-6-isopropenyl-3-methylcyclohex-2-en-1-yl]-5-pentylbenzene-1,3-diol]	having activity	about 2	inhibitory effect on biofilm formation is reduced	about 30%	very low affinity

Reference: patent US10952432B2, “Cannabidiol compositions and uses thereof” (PHARMOTECH SA, priority 2016, dated 2021)
